Tested on: MCH receptors
Assay: MCH receptor activity class (method not given)
Conditions: activity class 1-3: percent of control at 10^-7 M or IC50

Compound | class
CN(C)c1cc(NC2CCC(NC(=O)OCc3ccccc3)CC2)nc2ccccc12 (stereo not drawn) [compound 1551] | 3 (Class 3 The value of percent of control at 10^−7 M was more than 60% or the value of IC50 was more than 200 nM.)
CN(C)c1cc(N[C@H]2CC[C@@H](NC(=O)Oc3ccccc3)CC2)nc2ccccc12 [compound 1552] | 3 (Class 3 The value of percent of control at 10^−7 M was more than 60% or the value of IC50 was more than 200 nM.)
CC(C)[C@@H]1CC[C@@H](C)C[C@H]1OC(=O)N[C@H]1CC[C@@H](Nc2cc(N(C)C)c3ccccc3n2)CC1 [compound 1553] | 3 (Class 3 The value of percent of control at 10^−7 M was more than 60% or the value of IC50 was more than 200 nM.)
Cc1ccc(OC(=O)N[C@H]2CC[C@@H](Nc3cc(N(C)C)c4ccccc4n3)CC2)cc1 [compound 1554] | 3 (Class 3 The value of percent of control at 10^−7 M was more than 60% or the value of IC50 was more than 200 nM.)
COC(=O)N[C@H]1CC[C@@H](Nc2cc(N(C)C)c3ccccc3n2)CC1 [compound 1555] | 3 (Class 3 The value of percent of control at 10^−7 M was more than 60% or the value of IC50 was more than 200 nM.)
CN(C)c1cc(N[C@H]2CC[C@@H](NC(=O)OCc3ccccc3Cl)CC2)nc2ccccc12 [compound 1556] | 3 (Class 3 The value of percent of control at 10^−7 M was more than 60% or the value of IC50 was more than 200 nM.)
CN(C)c1cc(N[C@H]2CC[C@@H](NC(=O)OCC3c4ccccc4-c4ccccc43)CC2)nc2ccccc12 [compound 1557] | 3 (Class 3 The value of percent of control at 10^−7 M was more than 60% or the value of IC50 was more than 200 nM.)
CN(C)c1cc(N[C@H]2CC[C@@H](NC(=O)OCC(Cl)(Cl)Cl)CC2)nc2ccccc12 [compound 1558] | 3 (Class 3 The value of percent of control at 10^−7 M was more than 60% or the value of IC50 was more than 200 nM.)
CN(C)c1cc(N[C@H]2CC[C@@H](CNC(=O)OCCOCc3ccccc3)CC2)nc2ccccc12 [compound 1559] | 3 (Class 3 The value of percent of control at 10^−7 M was more than 60% or the value of IC50 was more than 200 nM.)
CN(C)c1cc(N[C@H]2CC[C@@H](CNC(=O)OCC(C)(C)C)CC2)nc2ccccc12 [compound 1560] | 3 (Class 3 The value of percent of control at 10^−7 M was more than 60% or the value of IC50 was more than 200 nM.)
COc1cc(COC(=O)NC[C@H]2CC[C@@H](Nc3cc(N(C)C)c4ccccc4n3)CC2)c([N+](=O)[O-])cc1OC [compound 1561] | 3 (Class 3 The value of percent of control at 10^−7 M was more than 60% or the value of IC50 was more than 200 nM.)
CN(C)c1cc(N[C@H]2CC[C@@H](CNC(=O)Oc3cccc(C(F)(F)F)c3)CC2)nc2ccccc12 [compound 1562] | 3 (Class 3 The value of percent of control at 10^−7 M was more than 60% or the value of IC50 was more than 200 nM.)
CN(C)c1cc(N[C@H]2CC[C@@H](CNC(=O)Oc3ccc(Br)cc3)CC2)nc2ccccc12 [compound 1563] | 3 (Class 3 The value of percent of control at 10^−7 M was more than 60% or the value of IC50 was more than 200 nM.)
COc1ccccc1OC(=O)NC[C@H]1CC[C@@H](Nc2cc(N(C)C)c3ccccc3n2)CC1 [compound 1564] | 3 (Class 3 The value of percent of control at 10^−7 M was more than 60% or the value of IC50 was more than 200 nM.)
COCCOC(=O)NC[C@H]1CC[C@@H](Nc2cc(N(C)C)c3ccccc3n2)CC1 [compound 1565] | 3 (Class 3 The value of percent of control at 10^−7 M was more than 60% or the value of IC50 was more than 200 nM.)
CCCCCCCCOC(=O)NC[C@H]1CC[C@@H](Nc2cc(N(C)C)c3ccccc3n2)CC1 [compound 1566] | 3 (Class 3 The value of percent of control at 10^−7 M was more than 60% or the value of IC50 was more than 200 nM.)
CCOC(=O)NC[C@H]1CC[C@@H](Nc2cc(N(C)C)c3ccccc3n2)CC1 [compound 1567] | 3 (Class 3 The value of percent of control at 10^−7 M was more than 60% or the value of IC50 was more than 200 nM.)
CN(C)c1cc(N[C@H]2CC[C@@H](CNC(=O)OCc3ccc([N+](=O)[O-])cc3)CC2)nc2ccccc12 [compound 1568] | 3 (Class 3 The value of percent of control at 10^−7 M was more than 60% or the value of IC50 was more than 200 nM.)
CN(C)c1cc(N[C@H]2CC[C@@H](CNC(=O)Oc3ccc4ccccc4c3)CC2)nc2ccccc12 [compound 1569] | 3 (Class 3 The value of percent of control at 10^−7 M was more than 60% or the value of IC50 was more than 200 nM.)
C=CCOC(=O)NC[C@H]1CC[C@@H](Nc2cc(N(C)C)c3ccccc3n2)CC1 [compound 1570] | 3 (Class 3 The value of percent of control at 10^−7 M was more than 60% or the value of IC50 was more than 200 nM.)
CN(C)c1cc(N[C@H]2CC[C@@H](CNC(=O)OCc3ccccc3)CC2)nc2ccccc12 [compound 1571] | 3 (Class 3 The value of percent of control at 10^−7 M was more than 60% or the value of IC50 was more than 200 nM.)

Compound | class
CN(C)c1cc(N[C@H]2CC[C@@H](CNC(=O)Oc3ccccc3)CC2)nc2ccccc12 [compound 1572] | 3 (Class 3 The value of percent of control at 10^−7 M was more than 60% or the value of IC50 was more than 200 nM.)
CC(C)[C@@H]1CC[C@@H](C)C[C@H]1OC(=O)NC[C@H]1CC[C@@H](Nc2cc(N(C)C)c3ccccc3n2)CC1 [compound 1573] | 3 (Class 3 The value of percent of control at 10^−7 M was more than 60% or the value of IC50 was more than 200 nM.)
Cc1ccc(OC(=O)NC[C@H]2CC[C@@H](Nc3cc(N(C)C)c4ccccc4n3)CC2)cc1 [compound 1574] | 3 (Class 3 The value of percent of control at 10^−7 M was more than 60% or the value of IC50 was more than 200 nM.)
COC(=O)NC[C@H]1CC[C@@H](Nc2cc(N(C)C)c3ccccc3n2)CC1 [compound 1575] | 3 (Class 3 The value of percent of control at 10^−7 M was more than 60% or the value of IC50 was more than 200 nM.)
CN(C)c1cc(N[C@H]2CC[C@@H](CNC(=O)OCc3ccccc3Cl)CC2)nc2ccccc12 [compound 1576] | 3 (Class 3 The value of percent of control at 10^−7 M was more than 60% or the value of IC50 was more than 200 nM.)
CN(C)c1cc(N[C@H]2CC[C@@H](CNC(=O)OCC3c4ccccc4-c4ccccc43)CC2)nc2ccccc12 [compound 1577] | 3 (Class 3 The value of percent of control at 10^−7 M was more than 60% or the value of IC50 was more than 200 nM.)
CN(C)c1cc(N[C@H]2CC[C@@H](CNC(=O)OCC(Cl)(Cl)Cl)CC2)nc2ccccc12 [compound 1578] | 3 (Class 3 The value of percent of control at 10^−7 M was more than 60% or the value of IC50 was more than 200 nM.)
CN(C)c1nc(N[C@H]2CC[C@@H](NC(=O)OCCOCc3ccccc3)CC2)nc2c1CCCC2 [compound 1579] | 3 (Class 3 The value of percent of control at 10^−7 M was more than 60% or the value of IC50 was more than 200 nM.)
CN(C)c1nc(N[C@H]2CC[C@@H](NC(=O)OCC(C)(C)C)CC2)nc2c1CCCC2 [compound 1580] | 3 (Class 3 The value of percent of control at 10^−7 M was more than 60% or the value of IC50 was more than 200 nM.)
COc1cc(COC(=O)NC2CCC(Nc3nc4c(c(N(C)C)n3)CCCC4)CC2)c([N+](=O)[O-])cc1OC (stereo not drawn) [compound 1581, [4-(4-Dimethylamino-5,6,7,8-tetrahydro-quinazolin-2-ylamino)-cyclohexy]-carbamic acid 4,5-dimethoxy-2-nitro-benzyl ester] | 2 (Class 2: The value of percent of control at 10^−7 M was from 40% to 60% or the value of IC′50 was from 50 nM to 200 nM.)
CN(C)c1nc(N[C@H]2CC[C@@H](NC(=O)Oc3cccc(C(F)(F)F)c3)CC2)nc2c1CCCC2 [compound 1582] | 3 (Class 3 The value of percent of control at 10^−7 M was more than 60% or the value of IC50 was more than 200 nM.)
CN(C)c1nc(N[C@H]2CC[C@@H](NC(=O)Oc3ccc(Br)cc3)CC2)nc2c1CCCC2 [compound 1583] | 3 (Class 3 The value of percent of control at 10^−7 M was more than 60% or the value of IC50 was more than 200 nM.)
COc1ccccc1OC(=O)N[C@H]1CC[C@@H](Nc2nc3c(c(N(C)C)n2)CCCC3)CC1 [compound 1584] | 3 (Class 3 The value of percent of control at 10^−7 M was more than 60% or the value of IC50 was more than 200 nM.)
COCCOC(=O)N[C@H]1CC[C@@H](Nc2nc3c(c(N(C)C)n2)CCCC3)CC1 [compound 1585] | 3 (Class 3 The value of percent of control at 10^−7 M was more than 60% or the value of IC50 was more than 200 nM.)
CCCCCCCCOC(=O)N[C@H]1CC[C@@H](Nc2nc3c(c(N(C)C)n2)CCCC3)CC1 [compound 1586] | 3 (Class 3 The value of percent of control at 10^−7 M was more than 60% or the value of IC50 was more than 200 nM.)
CCOC(=O)N[C@H]1CC[C@@H](Nc2nc3c(c(N(C)C)n2)CCCC3)CC1 [compound 1587] | 3 (Class 3 The value of percent of control at 10^−7 M was more than 60% or the value of IC50 was more than 200 nM.)
CN(C)c1nc(N[C@H]2CC[C@@H](NC(=O)OCc3ccc([N+](=O)[O-])cc3)CC2)nc2c1CCCC2 [compound 1588] | 3 (Class 3 The value of percent of control at 10^−7 M was more than 60% or the value of IC50 was more than 200 nM.)
CN(C)c1nc(N[C@H]2CC[C@@H](NC(=O)Oc3ccc4ccccc4c3)CC2)nc2c1CCCC2 [compound 1589] | 3 (Class 3 The value of percent of control at 10^−7 M was more than 60% or the value of IC50 was more than 200 nM.)
C=CCOC(=O)N[C@H]1CC[C@@H](Nc2nc3c(c(N(C)C)n2)CCCC3)CC1 [compound 1590] | 3 (Class 3 The value of percent of control at 10^−7 M was more than 60% or the value of IC50 was more than 200 nM.)
CN(C)c1nc(N[C@H]2CC[C@@H](NC(=O)OCc3ccccc3)CC2)nc2c1CCCC2 [compound 1591] | 3 (Class 3 The value of percent of control at 10^−7 M was more than 60% or the value of IC50 was more than 200 nM.)
CN(C)c1nc(N[C@H]2CC[C@@H](NC(=O)Oc3ccccc3)CC2)nc2c1CCCC2 [compound 1592] | 3 (Class 3 The value of percent of control at 10^−7 M was more than 60% or the value of IC50 was more than 200 nM.)
